The values that follow come from EP2948433B1, “ATGLISTATIN AS LIPASE INHIBITOR” (Technische Universität Graz, priority 2013, dated 2014).

Marks after values point to notes of the source that are not given here. Some results are limits rather than exact numbers.

The target of one assay is T1, pancreatic lipase (Sus scrofa, UniProt P00591).
T1 construct: pancreatic lipase (from porcine pancreas, Sigma); purchased Sigma; host or cells: porcine pancreas
T1 sequence (P00591 1-450): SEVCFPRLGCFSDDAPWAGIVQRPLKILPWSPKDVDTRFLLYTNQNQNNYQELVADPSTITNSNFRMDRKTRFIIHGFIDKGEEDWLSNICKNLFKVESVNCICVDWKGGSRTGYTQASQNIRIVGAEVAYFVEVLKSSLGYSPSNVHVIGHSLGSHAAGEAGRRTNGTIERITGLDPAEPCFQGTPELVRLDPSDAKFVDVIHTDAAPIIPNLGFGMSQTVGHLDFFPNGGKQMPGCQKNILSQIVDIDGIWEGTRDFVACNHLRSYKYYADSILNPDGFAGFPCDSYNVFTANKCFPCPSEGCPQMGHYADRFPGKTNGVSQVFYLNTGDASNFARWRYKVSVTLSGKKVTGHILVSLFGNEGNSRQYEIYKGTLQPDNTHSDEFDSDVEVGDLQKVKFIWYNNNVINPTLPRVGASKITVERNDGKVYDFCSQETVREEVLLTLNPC
Kind of assay: Pancreatic lipase activity, triolein substrate. Particulars: Fig. 2D. The format is biochemical, porcine. Here is the method: (§1) • Figure 1. Structure of compounds 1 to 3 (reference) and compound 4 (atglistatin) and effect on ATGL activity. For determination of lipase activity, lysates of E. coli overexpressing recombinant strep-tagged ATGL and CGI-58 were incubated with a substrate containing radiolabeled [9,10-3H(N)]-triolein. Subsequently, FA were extracted and quantified by liquid scintillation counting. Lysates of cells expressing empty vector were set as blank. Inhibitors were solubilized in DMSO and added at the indicated concentrations. DMSO alone was used as negative control. (A) Structure and IC50 values of compounds 1-4. (B) Dose-dependent inhibition of ATGL in the presence of compound 3 and 4. […] (C) Lineweaver-Burk plots for kinetic analysis of ATGL inhibition. Experiments were performed at varying concentrations of substrate (0.05 - 3 mM) in presence and absence of compound 4 (Atglistatin). […] Lipase activity of ATGL, HSL, lipoprotein lipase, and pancreatic lipase was determined using triolein as substrate. MGL activity was detected in the presence of rac-(1,3)-monooleoylglycerol as substrate. […] The release of FA (A) and glycerol (B) in the media was determined using commercial kits. […] At the indicated timepoints blood was taken retroorbitally and plasma parameters were measured using commercial kits. […] 8 h after gavage blood was taken retroorbitally and plasma parameters were measured using commercial kits. […]

A short description of assay [1]: Inhibition of lipolysis in vivo, oral gavage in fasted mice, plasma parameters. Set-up: species or system C57BI/6J mice. Here is the method: • Figure 1. Structure of compounds 1 to 3 (reference) and compound 4 (atglistatin) and effect on ATGL activity. For determination of lipase activity, lysates of E. coli overexpressing recombinant strep-tagged ATGL and CGI-58 were incubated with a substrate containing radiolabeled [9,10-3H(N)]-triolein. Subsequently, FA were extracted and quantified by liquid scintillation counting. Lysates of cells expressing empty vector were set as blank. Inhibitors were solubilized in DMSO and added at the indicated concentrations. DMSO alone was used as negative control. (A) Structure and IC50 values of compounds 1-4. (B) Dose-dependent inhibition of ATGL in the presence of compound 3 and 4. […] (C) Lineweaver-Burk plots for kinetic analysis of ATGL inhibition. Experiments were performed at varying concentrations of substrate (0.05 - 3 mM) in presence and absence of compound 4 (Atglistatin). […] Data are presented as mean +/-S.D. of triplicate determinations. Data for compound 4 are representative for at least three independent experiments. • Figure 2. Selectivity of Atglistatin. Lipase activity of ATGL, HSL, lipoprotein lipase, and pancreatic lipase was determined using triolein as substrate. MGL activity was detected in the presence of rac-(1,3)-monooleoylglycerol as substrate. Inhibitors were solubilized in DMSO and added at the indicated concentrations. DMSO alone was used as negative control. (A) Dose-dependent inhibition of TG hydrolase activity in WAT lysates obtained from wild-type and ATGL-ko mice. (B) Inhibition of TG hydrolase activity in wild-type WAT lysates by Atglistatin (40 µM) and by the HSL inhibitor Hi 76-0079 (20 µM). (C) Effect of Atglistatin on murine MGL (purified from E. coli), and murine HSL (overexpressed in COS-7 lysates) activity. (D) Effect of Atglistatin on purified bovine LPL (Sigma) and pancreatic lipase (from porcine pancreas, Sigma). Data are presented as mean +/- S.D. of triplicate determinations and are representative for at least three independent experiments (p < 0.05 **, p < 0.01; ***, p < 0.001). • Figure 3 Inhibition of lipolysis in 3T3-L1 adipocytes and WAT organ cultures. (A,B) Differentiated 3T3 cells were preincubated with the indicated concentrations of Atglistatin. Thereafter, the medium was replaced by DMEM containing 2% BSA (fatty acid free), 10 µM forskolin, in the presence or absence of inhibitors. The release of FA (A) and glycerol (B) in the media was determined using commercial kits. Basal FA and glycerol release (not shown) was barely detectable under the applied conditions. Data are presented as mean +/- SD and are representative for 2 independent experiments. (C-F) Effect of Atglistatin on WAT basal (C, D) and forskolin-stimulated (E, F) lipolysis. Adipose tissue pieces (∼15 mg, n=5 for each concentration) of wild-type mice were cultured for 8 h in DMEM containing 2 % FA-free BSA and the indicated concentrations of Atglistatin. Subsequently, the medium was replaced by identical fresh medium and samples were collected after incubation for another hour in the presence or in the absence of 10 µM forskolin. Atglistatin was solubilized in DMSO and DMSO alone was used as negative control. Data are presented as mean +/- S.D. (*, p < 0.05 **, p < 0.01; ***, p < 0.001). • Figure 4 Inhibition of lipolysis in vivo. (A,B) Time dependent effect of Atglistatin on plasma free fatty acids (FFA) and glycerol levels of mice. C57BI6 mice were fasted overnight (ON) and received an oral gavage containing 100 µmol/kg Atglistatin dissolved in olive oil, or olive oil as control. At the indicated timepoints blood was taken retroorbitally and plasma parameters were measured using commercial kits. (C,D) Dose dependent effect of Atglistatin on plasma FFA and glycerol levels of mice. C57BI6 mice were fasted ON and received an oral gavage containing 0, 50, 100, or 200 µmol/kg Atglistatin dissolved in olive oil, or olive oil as control. 8 h after gavage blood was taken retroorbitally and plasma parameters were measured using commercial kits. […]

The target in the next assay is T2, murine MGL (Mus musculus, UniProt O35678).
T2 construct: made in house; host or cells: E. coli, purified
T2 sequence (O35678 1-303): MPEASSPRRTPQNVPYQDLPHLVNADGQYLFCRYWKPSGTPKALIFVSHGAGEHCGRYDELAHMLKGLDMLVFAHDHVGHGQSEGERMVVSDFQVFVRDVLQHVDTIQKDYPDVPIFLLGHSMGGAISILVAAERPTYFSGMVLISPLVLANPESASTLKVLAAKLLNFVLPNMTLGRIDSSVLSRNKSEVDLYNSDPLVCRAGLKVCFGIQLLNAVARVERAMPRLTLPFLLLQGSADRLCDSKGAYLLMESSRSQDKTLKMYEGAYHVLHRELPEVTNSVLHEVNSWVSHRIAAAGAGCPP
As to the kind of experiment: MG hydrolase activity, purified MGL, rac-1-(3)-oleoylglycerol substrate. As to conditions: Fig. 2C. The format is biochemical. The method, then: as §1

Setting [2] is: plasma, 200 µmol/kg oral gavage, after 8 h, mean ± S.D., n = 7.
The mark [3] stands for this setting: up to, 50, 100 or 200 µmol/kg oral gavage, 8 h after gavage.

As for `CN(C)C(=O)Nc1cccc(-c2ccc(N(C)C)cc2)c1` [Atglistatin, atglistatin], the “effect on pancreatic lipase” value at pancreatic lipase was “only minor effects”. Further, the “plasma levels for glycerol, time course” value in assay [1] (100 µmol/kg oral gavage in olive oil, between 4 h and 8 h after gavage) is “time dependent decrease”. For the same compound, the “plasma levels for FA, time course” value in assay [1] (100 µmol/kg oral gavage in olive oil, between 4 h and 12 h after gavage) is “time dependent decrease”. Further, in assay [1] (setting [2]), the FFA is reported as 0.53 ± 0.05*** mmol/L and the Triglycerides is 0.33 ± 0.14** mmol/L. Besides, in assay [1] (setting [3]), the “dose-dependent decrease in plasma FA levels” value is listed as “up to 50%” and the “dose-dependent decrease in plasma glycerol levels” value was not above 70%. In addition, at murine MGL, the “effect on MGL activity” value is on record as “only minor effects”.
